Experimental data: patent US11053204B2, “Pyrimidinyloxy benzene derivatives as herbicides” (FMC Corporation, priority 2015, dated 2021)

How the values were obtained:
Format in all cases: in vivo
[1] = test system: ducksalad (Heteranthera limosa); assay: Test B flooded paddy test, plant response rating; details: 250 g ai/ha; Flood; scale of 0 to 100 where 0 is no effect and 100 is complete control; 13 to 15 days
In short: (§1)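 Compound was added to standing water 3 cm above soil, flood maintained, and plants held in a greenhouse before visual scoring against controls at 13 to 15 days.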

[2] = test system: sedge, umbrella (small-flower umbrella sedge, Cyperus difformis); assay: Test B flooded paddy test, plant response rating; details: 250 g ai/ha; Flood; scale of 0 to 100 where 0 is no effect and 100 is complete control; 13 to 15 days
In short: as §1

[3] = test system: barnyardgrass (Echinochloa crus-galli); assay: Test B flooded paddy test, plant response rating; details: 250 g ai/ha; Flood; scale of 0 to 100 where 0 is no effect and 100 is complete control; 13 to 15 days
In short: as §1

rice (Oryza sativa) = assay: Test B flooded paddy test, plant response rating; details: 250 g ai/ha; Flood; scale of 0 to 100 where 0 is no effect and 100 is complete control; 13 to 15 days
In short: as §1

[4] = test system: Italian ryegrass (Lolium multiflorum); assay: Test A preemergence, visual injury rating; details: for Plant response rating, Ryegrass, Italian: 31 g ai/ha, 0 to 100 scale, 0 no effect, 100 complete control; for Ryegrass, Italian plant response rating: 0 to 100 scale (0 no effect, 100 complete control)
In short: (§2)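 Compounds in non-phytotoxic solvent with surfactant applied as soil spray preemergence, or postemergence to plants 2-10 cm at one- to two-leaf stage, in loam/sand. After approximately 10 days in greenhouse, injury rated visually versus untreated controls, 0 (no effect) to 100 (complete control).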

kochia (Kochia scoparia) [5] = assay: Test A preemergence, visual injury rating; details: for Plant response rating, Kochia: 31 g ai/ha, 0 to 100 scale, 0 no effect, 100 complete control; for Kochia plant response rating: 0 to 100 scale (0 no effect, 100 complete control)
In short: as §2

[6] = test system: pigweed (Amaranthus retroflexus); assay: Test A preemergence, visual injury rating; details: for Plant response rating, Pigweed: 31 g ai/ha, 0 to 100 scale, 0 no effect, 100 complete control; for Pigweed plant response rating: 0 to 100 scale (0 no effect, 100 complete control)
In short: as §2

[7] = test system: giant foxtail (Setaria faberii); assay: Test A preemergence, visual injury rating; details: for Plant response rating, Foxtail, Giant: 31 g ai/ha, 0 to 100 scale, 0 no effect, 100 complete control; for Foxtail, Giant plant response rating: 0 to 100 scale (0 no effect, 100 complete control)
In short: as §2

[8] = test system: barnyardgrass (Echinochloa crus-galli); assay: Test A preemergence, visual injury rating; details: for Plant response rating, Barnyardgrass: 31 g ai/ha, 0 to 100 scale, 0 no effect, 100 complete control; for Barnyardgrass plant response rating: 0 to 100 scale (0 no effect, 100 complete control)
In short: as §2

[9] = test system: ragweed (common ragweed, Ambrosia elatior); assay: Test A preemergence, visual injury rating; details: for Plant response rating, Ragweed: 31 g ai/ha, 0 to 100 scale, 0 no effect, 100 complete control; for Ragweed plant response rating: 0 to 100 scale (0 no effect, 100 complete control)
In short: as §2

[10] = test system: wheat (Triticum aestivum); assay: Test A postemergence, visual injury rating; details: 0 is no effect, 100 is complete control; for Wheat plant response rating: 0 to 100 scale, approximately 10 days
In short: as §2

[11] = test system: Italian ryegrass (Lolium multiflorum); assay: Test A postemergence, visual injury rating; details: 0 is no effect, 100 is complete control; for Ryegrass, Italian plant response rating: 0 to 100 scale, approximately 10 days
In short: as §2

kochia (Kochia scoparia) [12] = assay: Test A postemergence, visual injury rating; details: 0 is no effect, 100 is complete control; for Kochia plant response rating: 0 to 100 scale, approximately 10 days
In short: as §2

[13] = test system: pigweed (Amaranthus retroflexus); assay: Test A postemergence, visual injury rating; details: 0 is no effect, 100 is complete control; for Pigweed plant response rating: 0 to 100 scale, approximately 10 days
In short: as §2

[14] = test system: blackgrass (Alopecurus myosuroides); assay: Test A postemergence, visual injury rating; details: 0 is no effect, 100 is complete control; for Blackgrass plant response rating: 31 g ai/ha, 0 to 100 scale, approximately 10 days
In short: as §2

[15] = test system: giant foxtail (Setaria faberii); assay: Test A postemergence, visual injury rating; details: 0 is no effect, 100 is complete control; for Foxtail, Giant plant response rating: 31 g ai/ha, 0 to 100 scale, approximately 10 days
In short: as §2

corn (Zea mays) = assay: Test A postemergence, visual injury rating; details: 0 is no effect, 100 is complete control; for Corn plant response rating: 31 g ai/ha, 0 to 100 scale, approximately 10 days
In short: as §2

[16] = test system: barnyardgrass (Echinochloa crus-galli); assay: Test A postemergence, visual injury rating; details: 0 is no effect, 100 is complete control; for Barnyardgrass plant response rating: 31 g ai/ha, 0 to 100 scale, approximately 10 days
In short: as §2

[17] = test system: galium (catchweed bedstraw, Galium aparine); assay: Test A postemergence, visual injury rating; details: 0 is no effect, 100 is complete control; for Galium plant response rating: 31 g ai/ha, 0 to 100 scale, approximately 10 days
In short: as §2

[18] = test system: ragweed (common ragweed, Ambrosia elatior); assay: Test A postemergence, visual injury rating; details: 0 is no effect, 100 is complete control; for Ragweed plant response rating: 0 to 100 scale, approximately 10 days
In short: as §2

| Compound | Plant response rating, Ducksalad [1] | Plant response rating, Sedge, Umbrella [2] | Plant response rating, Barnyardgrass [3] | Plant response rating, Rice (rice (Oryza sativa)) | Ryegrass, Italian plant response rating ([4]; 125 g ai/ha) | Kochia plant response rating (kochia (Kochia scoparia) [5]; 125 g ai/ha) | Pigweed plant response rating ([6]; 125 g ai/ha) | Foxtail, Giant plant response rating ([7]; 125 g ai/ha) | Barnyardgrass plant response rating ([8]; 125 g ai/ha) | Ragweed plant response rating ([9]; 125 g ai/ha) | Wheat plant response rating ([10]; 125 g ai/ha) | Ryegrass, Italian plant response rating ([11]; 125 g ai/ha) | Kochia plant response rating (kochia (Kochia scoparia) [12]; 125 g ai/ha) | Pigweed plant response rating ([13]; 125 g ai/ha) | Blackgrass plant response rating (0 to 100 scale) ([14]; 125 g ai/ha) | Foxtail, Giant plant response rating (0 to 100 scale) ([15]; 125 g ai/ha) | Corn plant response rating (0 to 100 scale) (corn (Zea mays); 125 g ai/ha) | Barnyardgrass plant response rating (0 to 100 scale) ([16]; 125 g ai/ha) | Galium plant response rating (0 to 100 scale) ([17]; 125 g ai/ha) | Ragweed plant response rating ([18]; 125 g ai/ha) | further results |
| --- | --- | --- | --- | --- | --- | --- | --- | --- | --- | --- | --- | --- | --- | --- | --- | --- | --- | --- | --- | --- | --- |
| FC(F)(F)CCCOCc1c(Br)cccc1Oc1ncc(Cl)cn1 [Compound 74] | 100 | 100 | 40 | 0 | 20 | 100 | 90 | 100 | 60 | 0 | 10 | 20 | 40 | 100 | 30 | 70 | 20 | 40 | 80 | 10 | Plant response rating, Ryegrass, Italian [4]: 0; Plant response rating, Kochia (kochia (Kochia scoparia) [5]): 0; Plant response rating, Pigweed [6]: 20; Plant response rating, Foxtail, Giant [7]: 40; Plant response rating, Barnyardgrass [8]: 10; Plant response rating, Ragweed [9]: 0; Wheat plant response rating ([10]; 31 g ai/ha): 0; Ryegrass, Italian plant response rating ([11]; 31 g ai/ha): 0; Kochia plant response rating (kochia (Kochia scoparia) [12]; 31 g ai/ha): 20; Pigweed plant response rating ([13]; 31 g ai/ha): 60; Blackgrass plant response rating [14]: 10; Foxtail, Giant plant response rating [15]: 20; Corn plant response rating (corn (Zea mays)): 10; Barnyardgrass plant response rating [16]: 10; Galium plant response rating [17]: 20; Ragweed plant response rating ([18]; 31 g ai/ha): 0 |
| CC(=NOC(C)C)c1c(F)cccc1Oc1ncc(Cl)cn1 [Compound 76] | 85 | 70 | 0 | 10 | 0 | 0 | 50 | 70 | 70 | 0 | 0 | 0 | 0 | 30 | 0 | 0 | 0 | 0 | 90 | 0 | Plant response rating, Ryegrass, Italian [4]: 0; Plant response rating, Kochia (kochia (Kochia scoparia) [5]): 0; Plant response rating, Pigweed [6]: 0; Plant response rating, Foxtail, Giant [7]: 0; Plant response rating, Barnyardgrass [8]: 0; Plant response rating, Ragweed [9]: 0; Wheat plant response rating ([10]; 31 g ai/ha): 0; Ryegrass, Italian plant response rating ([11]; 31 g ai/ha): 0; Kochia plant response rating (kochia (Kochia scoparia) [12]; 31 g ai/ha): 0; Pigweed plant response rating ([13]; 31 g ai/ha): 0; Blackgrass plant response rating [14]: 0; Foxtail, Giant plant response rating [15]: 0; Corn plant response rating (corn (Zea mays)): 0; Barnyardgrass plant response rating [16]: 0; Galium plant response rating [17]: 0; Ragweed plant response rating ([18]; 31 g ai/ha): 0 |
| O=C(OC1CCC1)c1c(Br)cccc1Oc1ncc(Cl)cn1 [Compound 78] | 70 | 80 | 20 | 15 | 0 | 20 | 80 | 90 | 60 | 0 | 20 | 0 | 70 | 80 | 20 | 50 | 40 | 60 | 70 | 0 | Ryegrass, Italian plant response rating ([4]; 500 g ai/ha): 20; Kochia plant response rating (kochia (Kochia scoparia) [5]; 500 g ai/ha): 60; Pigweed plant response rating ([6]; 500 g ai/ha): 100; Foxtail, Giant plant response rating ([7]; 500 g ai/ha): 100; Barnyardgrass plant response rating ([8]; 500 g ai/ha): 100; Ragweed plant response rating ([9]; 500 g ai/ha): 0; Wheat plant response rating (0 to 100 scale) ([10]; 500 g ai/ha): 30; Ryegrass, Italian plant response rating (0 to 100 scale) ([11]; 500 g ai/ha): 30; Kochia plant response rating (0 to 100 scale) (kochia (Kochia scoparia) [12]; 500 g ai/ha): 100; Pigweed plant response rating (0 to 100 scale) ([13]; 500 g ai/ha): 90; Blackgrass plant response rating (0 to 100 scale) ([14]; 500 g ai/ha): 60; Foxtail, Giant plant response rating (0 to 100 scale) ([15]; 500 g ai/ha): 80; Corn plant response rating (0 to 100 scale) (corn (Zea mays); 500 g ai/ha): 60; Barnyardgrass plant response rating (0 to 100 scale) ([16]; 500 g ai/ha): 100; Galium plant response rating (0 to 100 scale) ([17]; 500 g ai/ha): 100; Ragweed plant response rating (0 to 100 scale) ([18]; 500 g ai/ha): 30 |
| N#Cc1cccc(Oc2ncc(Cl)cn2)c1COCCCC(F)(F)F [Compound 81] | 100 | 100 | 45 | 0 | 20 | 90 | 100 | 100 | 90 | 0 | 0 | 10 | 50 | 100 | 40 | 70 | 40 | 50 | 80 | 10 | Plant response rating, Ryegrass, Italian [4]: 0; Plant response rating, Kochia (kochia (Kochia scoparia) [5]): 0; Plant response rating, Pigweed [6]: 100; Plant response rating, Foxtail, Giant [7]: 30; Plant response rating, Barnyardgrass [8]: 10; Plant response rating, Ragweed [9]: 0; Wheat plant response rating ([10]; 31 g ai/ha): 0; Ryegrass, Italian plant response rating ([11]; 31 g ai/ha): 0; Kochia plant response rating (kochia (Kochia scoparia) [12]; 31 g ai/ha): 30; Pigweed plant response rating ([13]; 31 g ai/ha): 50; Blackgrass plant response rating [14]: 10; Foxtail, Giant plant response rating [15]: 20; Corn plant response rating (corn (Zea mays)): 10; Barnyardgrass plant response rating [16]: 10; Galium plant response rating [17]: 30; Ragweed plant response rating ([18]; 31 g ai/ha): 0 |
